Results reported in paper PMC11862924, “Phenylpyrazoles as Inhibitors of the m^6A RNA-Binding Protein YTHDF2” (JACS Au, 2025).
“Also recorded” adds a separate entry of the source.

Assays:
[1] = MTT cytotoxicity assay, K562; assay type: cell-based; conditions: human, K562 cells, triplicates, read-out: Cytotoxicity against cancer cells (IC50), K562
Procedure: (§1) JAR, K562, and HCT116 cells were seeded in 96-well plates (3500 cells/well) and incubated for 8 h. The medium with different concentrations of compounds (100, 33.3, 11.1, 3.7, 1.2, and 0.4 μM) was added to the 96-well plates. Data were normalized to the medium with 0.1% DMSO. After incubation for 72 h, MTT solution (5 mg/mL, 20 μL) was added per well in a dark environment and incubated for 4 h. After the medium was discarded, DMSO (150 μL) was added per well, and the absorbance was measured at 492 nm by a plate reader (TECAN Spark).

[2] = tested on: JAR; assay: CCK-8 proliferation assay, JAR; assay type: cell-based; conditions: Homo sapiens; CCK-8 kit assay, triplicates, 72 h; read-out: Anti-proliferation activity against cancer cells (IC50), JAR
Procedure: The JAR, K562, HCT116, and MOLM13 cells were seeded in 96-well plates (3000 cells/well). After being cultured overnight, compounds were added together with the DMSO treatment (0.1%) as a control. After 72 h, CCK-8 solution (Vazyme, A311) was added, and the cells were incubated at 37 °C for 4 h. The absorbance was measured at 450 nm using a plate reader (TECAN Spark).

[3] = MTT cytotoxicity assay, HCT116; assay type: cell-based; conditions: human, HCT116 cells, triplicates, read-out: Cytotoxicity against cancer cells (IC50), HCT116
Procedure: as §1

[4] = molecular target: T1, YTHDC2 (residues 1285-1424) (Homo sapiens, UniProt Q9H6S0); assay: FP assay with YTH domain of YTHDC2; assay type: binding; conditions: 5.0 µM YTHDC2
T1 construct: YTHDC2 (residues 1285–1424); made in house; host or cells: Escherichia coli BL21(DE3); plasmid from the Zhou lab (Boston College)
T1 sequence (Q9H6S0 1285-1424): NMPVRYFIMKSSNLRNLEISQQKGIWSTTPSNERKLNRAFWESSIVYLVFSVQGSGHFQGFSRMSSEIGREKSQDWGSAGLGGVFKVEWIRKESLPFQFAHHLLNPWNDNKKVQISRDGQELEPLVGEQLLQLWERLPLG
Procedure: (§2) The FP assay was performed in 384-well black plates (Corning no. 4514) with a total reaction volume of 15 μL. The final concentrations of protein (YTHDF2) and RNA were […], respectively, in a buffer containing 20 mM HEPES/KOH pH 7.5, 50 mM NaCl, 0.005% Tween 20, and 1 mM GSH (DTT). Compounds were incubated with protein, added FAM-m^6A RNA probe ([…](m6)ACUGUG) (purchased from IDT), and incubated at 4 °C for 30 min. The fluorescence polarization was measured using a plate reader (TECAN Spark) under an excitation wavelength of 485 nm and an emission wavelength of 535 nm with a bandwidth of 20 nm. […] The data were determined using GraphPad Prism 9.
Figure S11. The FP assay of YTHDC2 binding to the m6A RNA substrate. (A)The purification of YTHDC2 (residues 1285-1424), molecular weight: 17.4 kDa. (B) The anisotropy values using different concentrations of YTHDC2 with the m6A RNA probe (4 nM), which was used to decide the appropriate YTHDC2 concentration for the FP (5.0 µM of YTHDC2, Z-factor: 0.83). (C) The […]
(§3) (1 picture or pasted object on this page, not shown here)

[5] = molecular target: T2, YTHDF1 (Homo sapiens, UniProt Q9BYJ9); assay: EMSA with YTHDF1; assay type: binding; conditions: m6A RNA 20 nM
T2 construct: Plasmids of the YTH domain of YTHDF1 (residues 375–552); made in house; host or cells: Escherichia coli BL21(DE3); plasmid from the Zhou lab (Boston College)
T2 sequence (Q9BYJ9 375-552): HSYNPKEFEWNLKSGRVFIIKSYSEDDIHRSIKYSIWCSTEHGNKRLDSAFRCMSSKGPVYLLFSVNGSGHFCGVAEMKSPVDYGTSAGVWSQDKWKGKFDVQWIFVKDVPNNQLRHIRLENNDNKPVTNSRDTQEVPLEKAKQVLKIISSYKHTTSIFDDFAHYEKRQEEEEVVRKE
Procedure: Compounds with different concentrations (3.1–100 μM) were incubated with 250 nM YTH-domain and 20 nM FAM-17mer-RNA in a buffer containing 20 mM HEPES, pH 8.2, 50 mM NaCl, 0.05% Triton X-100, and 5% v/v glycerol for 20 min at 4 °C. The samples were subjected to 12% native polyacrylamide gel and run at 120 V for 90 min at 4 °C using 0.5× TBE buffer. Gel imaging was performed in ChemiDoc MP (Bio-Rad), and Cy2/Alexa488 fluorescence was detected with a 1-min exposure time. Quantification of the gel image was performed by ImageJ.
Figure S12. The EMSA of YTHDF1 binding to the m6A RNA substrate. (A) The YTHDF1–RNA
complex formation in EMSA using m6A RNA (20 nM) and different concentrations of YTHDF1 . (B)
consistent results with that of FP.
as §3

[6] = molecular target: T3, YTHDC1 (residues 345-509) (Homo sapiens, UniProt Q96MU7); assay: FP assay with YTH domain of YTHDC1; assay type: binding; conditions: 2.0 µM YTHDC1
T3 construct: YTHDC1 (residues 345–509); made in house; host or cells: Escherichia coli BL21(DE3); plasmid from the Zhou lab (Boston College)
Procedure: as §2
Figure S10. The FP assay of YTHDC1 binding to the m6A RNA substrate. (A) The purification of YTHDC1 (residues 345-509), molecular weight: 19.9 kDa. (B) The anisotropy values using different concentrations of YTHDC1 with the m6A RNA probe (4 nM), which was used to decide the appropriate […] concentration for the FP (2.0 µM of YTHDC1, Z-factor: 0.54). (C) CK- […]
as §3

Row | inhibitory activity against YTHDC2 in FP (in words) [4] | inhibition of m6A RNA binding to YTHDF1 in EMSA (in words) [5] | inhibition at 100 µM ([4]; read-out: inhibition of YTHDC2 at 100 μM in FP, 100 μM compound) [%] | Structure (SMILES) | IC50 at 72 h [1] [µM] | IC50 [2] [µM] | IC50 at 72 h [3] [µM] | inhibitory activity against YTHDC1 in FP (in words) [6]
1 | inactive | did not show detectable inhibition | – | Cc1cc(O)c(C(=O)c2cnn(-c3ccc(C(=O)O)cc3)c2)cc1Cl [CK-79] | 29.4 ± 16.7 | 32.1 ± 6.3 | 33.6 ± 14.7 | did not show detectable inhibitory activity; also recorded: inactive
2 | inactive | did not show detectable inhibition | – | O=C(O)c1ccc(-n2cc(C(=O)c3c(O)ccc4ccccc34)cn2)cc1 [CK-75] | 29.7 | – | 33.3 | did not show detectable inhibitory activity; also recorded: inactive
3 | – | minimal inhibition | 36.1 | O=C(O)c1ccc(-n2cc(C(=O)c3cc(Cl)cc(Cl)c3O)cn2)cc1 [CK-61] | > 50 | > 50 | > 50 | did not show detectable inhibitory activity
